ChEMBL document CHEMBL6078670, “Discovery of a potent and selective TRPC3 antagonist with neuroprotective effects” (Bioorg Med Chem, 2025)
≈ marks a conversion by molar mass, not a printed value. Calls of active or inactive are those of the source. The rule behind the calls is not given here.

Experiments:
[1] = target: T1, Short transient receptor potential channel 6 (Homo sapiens) (UniProt Q9Y210); test: Antagonist activity at human TRPC6 expressed in HEK293 cells assessed as inhibition of carbachol-induced activity at 10 uM measured after 48 hrs by Whole-cell patch clamp electrophysiology; assay type: cell-based
T1 sequence (whole entry): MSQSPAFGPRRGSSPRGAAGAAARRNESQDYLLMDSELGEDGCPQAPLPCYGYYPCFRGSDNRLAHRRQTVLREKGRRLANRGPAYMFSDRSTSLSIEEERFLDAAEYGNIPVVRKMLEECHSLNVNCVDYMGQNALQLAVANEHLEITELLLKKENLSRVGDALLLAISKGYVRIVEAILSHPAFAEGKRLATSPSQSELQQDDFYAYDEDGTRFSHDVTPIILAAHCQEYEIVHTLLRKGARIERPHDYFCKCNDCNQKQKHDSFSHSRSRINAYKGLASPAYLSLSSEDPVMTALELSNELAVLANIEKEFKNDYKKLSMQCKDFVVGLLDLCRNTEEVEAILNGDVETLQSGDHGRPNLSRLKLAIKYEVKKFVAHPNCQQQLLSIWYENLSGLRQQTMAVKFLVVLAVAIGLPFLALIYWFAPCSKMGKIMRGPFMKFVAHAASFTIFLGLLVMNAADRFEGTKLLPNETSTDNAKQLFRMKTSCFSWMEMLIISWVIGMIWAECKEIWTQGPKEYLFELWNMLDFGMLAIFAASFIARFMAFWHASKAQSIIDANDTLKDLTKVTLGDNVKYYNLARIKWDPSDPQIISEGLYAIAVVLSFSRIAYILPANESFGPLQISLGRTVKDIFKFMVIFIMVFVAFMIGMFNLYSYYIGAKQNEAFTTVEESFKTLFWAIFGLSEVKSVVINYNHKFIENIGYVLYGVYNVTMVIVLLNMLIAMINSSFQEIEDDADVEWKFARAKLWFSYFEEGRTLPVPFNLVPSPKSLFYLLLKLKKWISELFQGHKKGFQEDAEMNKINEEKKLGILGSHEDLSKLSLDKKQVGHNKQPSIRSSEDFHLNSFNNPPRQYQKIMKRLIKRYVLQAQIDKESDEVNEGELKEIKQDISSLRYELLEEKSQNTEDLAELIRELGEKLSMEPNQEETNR

[2] = target: Short transient receptor potential channel 1 (Rattus norvegicus) (UniProt Q9QX01); test: Antagonist activity at rat TRPC1 expressed in HEK293 cells assessed as inhibition of carbachol-induced activity at 10 uM measured after 48 hrs by Whole-cell patch clamp electrophysiology; assay type: cell-based
[3] = target: Transient receptor potential cation channel subfamily M member 8 (Rattus norvegicus) (UniProt Q8R455); test: Antagonist activity at rat TRPM8 expressed in HEK293 cells assessed as inhibition of carbachol-induced activity at 10 uM measured after 48 hrs by Whole-cell patch clamp electrophysiology; assay type: cell-based
[4] = Kinetic solubility of the compound in ph 7.4 PBS buffer measured after 24 hrs shaken by HPLC and UPLC system; assay type: physicochemical; conditions: read-out: Kinetic_solubility
[5] = Metabolic stability in human liver microsomes assessed as half life measured up to 60 mins by LC-MS/MS analysis; assay type: ADME, Microsome; conditions: 1 h
[6] = Metabolic stability in mouse liver microsomes assessed as half life measured up to 60 mins by LC-MS/MS analysis; assay type: ADME, Microsome; conditions: 1 h
[7] = Metabolic stability in mouse liver microsomes assessed as intrinsic clearance measured up to 60 mins by LC-MS/MS analysis; assay type: ADME, Microsome; conditions: 1 h
Cytochrome P450 1A2 = target: T2, Cytochrome P450 1A2 (Homo sapiens, UniProt P05177); test: Inhibition of human liver microsomes CYP1A2 measured after 10 mins incubation by LC-MS analysis; assay type: ADME, Microsome
T2 sequence (P05177 whole entry): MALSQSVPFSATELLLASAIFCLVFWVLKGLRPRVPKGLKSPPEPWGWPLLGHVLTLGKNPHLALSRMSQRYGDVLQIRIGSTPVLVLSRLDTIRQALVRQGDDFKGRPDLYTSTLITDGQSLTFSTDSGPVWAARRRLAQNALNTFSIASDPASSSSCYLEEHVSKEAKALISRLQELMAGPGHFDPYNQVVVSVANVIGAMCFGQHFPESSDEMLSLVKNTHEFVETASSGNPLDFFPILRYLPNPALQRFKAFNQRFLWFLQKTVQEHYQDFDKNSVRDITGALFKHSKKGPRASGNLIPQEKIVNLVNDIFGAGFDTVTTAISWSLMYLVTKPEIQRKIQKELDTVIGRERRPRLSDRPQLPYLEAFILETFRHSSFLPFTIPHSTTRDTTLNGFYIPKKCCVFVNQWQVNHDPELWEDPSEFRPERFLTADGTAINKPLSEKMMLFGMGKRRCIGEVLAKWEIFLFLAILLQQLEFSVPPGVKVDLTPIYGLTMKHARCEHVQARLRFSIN

Cytochrome P450 2C9 = Cytochrome P450 2C9 (Homo sapiens, UniProt P11712); test: Inhibition of human liver microsomes CYP2C9 measured after 10 mins incubation by LC-MS analysis; assay type: ADME, Microsome
Cytochrome P450 2C19 = Cytochrome P450 2C19 (Homo sapiens, UniProt P33261); test: Inhibition of human liver microsomes CYP2C19 measured after 10 mins incubation by LC-MS analysis; assay type: ADME, Microsome
Cytochrome P450 3A4 = Cytochrome P450 3A4 (Homo sapiens, UniProt P08684); test: Inhibition of human liver microsomes CYP3A4-M measured after 10 mins incubation by LC-MS analysis; assay type: ADME, Microsome
Hippocampal neurone [8] = test: (§1) Rescuing beta-amyloid induced neuronal cell damage in Sprague-Dawley rat primary hippocampal cell culture (composed of 60% primary neuron, 20% microglia and 20% astrocyte) assessed as decrease in soluble oligomeric Abeta-containing media (7PA2 cells) induced synaptic toxicity at 100 nM; assay type: functional, cell-based
[9] = Cytotoxicity against Sprague-Dawley rat primary hippocampal cells at 100 nM; assay type: toxicity, cell-based; conditions: hippocampal neurone, 0.1 µM
Hippocampal neurone [10] = test: as §1, with “functional synapses by measuring decrease in SynI clustering level” for “synaptic toxicity”; assay type: cell-based
Hippocampal neurone [11] = test: as §1, with “functional synapses by measuring decrease in PSD95 clustering level” for “synaptic toxicity”; assay type: cell-based
Hippocampal neurone [12] = test: as §1, with “microgliosis (Iba1)” for “synaptic toxicity”, “500” for “100”, “nM by immunostaining analysis” for “nM”; assay type: functional, cell-based
Hippocampal neurone [13] = test: as §1, with “astrogliosis (GFAP)” for “synaptic toxicity”, “500” for “100”, “nM by immunostaining analysis” for “nM”; assay type: functional, cell-based

Sequence of Cytochrome P450 3A4 (P08684 whole entry): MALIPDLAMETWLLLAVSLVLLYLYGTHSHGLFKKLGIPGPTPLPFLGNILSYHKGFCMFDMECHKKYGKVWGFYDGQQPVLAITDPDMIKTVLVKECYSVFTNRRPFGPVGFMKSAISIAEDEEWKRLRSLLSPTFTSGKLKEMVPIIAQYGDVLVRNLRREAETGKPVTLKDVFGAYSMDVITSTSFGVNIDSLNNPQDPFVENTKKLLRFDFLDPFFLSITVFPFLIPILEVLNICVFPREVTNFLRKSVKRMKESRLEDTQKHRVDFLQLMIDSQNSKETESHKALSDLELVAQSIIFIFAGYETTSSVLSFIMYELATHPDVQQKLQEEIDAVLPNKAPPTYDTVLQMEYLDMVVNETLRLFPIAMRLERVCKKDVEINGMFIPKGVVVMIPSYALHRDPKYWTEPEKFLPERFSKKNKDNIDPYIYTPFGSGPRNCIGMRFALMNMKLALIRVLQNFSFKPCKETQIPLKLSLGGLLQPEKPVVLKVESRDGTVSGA
Sequence of Short transient receptor potential channel 1 (Rattus norvegicus) (Q9QX01 whole entry): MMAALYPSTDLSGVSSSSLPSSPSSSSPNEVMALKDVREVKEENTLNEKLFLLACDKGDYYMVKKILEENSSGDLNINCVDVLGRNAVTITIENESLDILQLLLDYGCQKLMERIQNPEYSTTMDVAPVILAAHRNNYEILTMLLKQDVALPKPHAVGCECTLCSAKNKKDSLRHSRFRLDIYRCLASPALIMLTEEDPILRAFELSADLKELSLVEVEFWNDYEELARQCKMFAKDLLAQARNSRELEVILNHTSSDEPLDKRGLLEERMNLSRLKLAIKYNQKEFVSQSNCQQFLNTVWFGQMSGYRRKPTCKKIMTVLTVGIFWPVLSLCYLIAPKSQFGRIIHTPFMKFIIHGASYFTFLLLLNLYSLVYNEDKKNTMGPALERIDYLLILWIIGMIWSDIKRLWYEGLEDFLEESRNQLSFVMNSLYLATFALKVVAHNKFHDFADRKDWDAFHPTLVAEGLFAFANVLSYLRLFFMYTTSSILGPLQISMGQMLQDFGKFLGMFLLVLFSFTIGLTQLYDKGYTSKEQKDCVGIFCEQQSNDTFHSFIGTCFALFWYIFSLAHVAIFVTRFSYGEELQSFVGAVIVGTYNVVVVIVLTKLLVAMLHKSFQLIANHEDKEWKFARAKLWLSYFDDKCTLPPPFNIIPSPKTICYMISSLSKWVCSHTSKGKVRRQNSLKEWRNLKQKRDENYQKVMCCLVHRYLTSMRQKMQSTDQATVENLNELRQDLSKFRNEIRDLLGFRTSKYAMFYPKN
Sequence of Transient receptor potential cation channel subfamily M member 8 (Rattus norvegicus) (Q8R455 whole entry, looked up): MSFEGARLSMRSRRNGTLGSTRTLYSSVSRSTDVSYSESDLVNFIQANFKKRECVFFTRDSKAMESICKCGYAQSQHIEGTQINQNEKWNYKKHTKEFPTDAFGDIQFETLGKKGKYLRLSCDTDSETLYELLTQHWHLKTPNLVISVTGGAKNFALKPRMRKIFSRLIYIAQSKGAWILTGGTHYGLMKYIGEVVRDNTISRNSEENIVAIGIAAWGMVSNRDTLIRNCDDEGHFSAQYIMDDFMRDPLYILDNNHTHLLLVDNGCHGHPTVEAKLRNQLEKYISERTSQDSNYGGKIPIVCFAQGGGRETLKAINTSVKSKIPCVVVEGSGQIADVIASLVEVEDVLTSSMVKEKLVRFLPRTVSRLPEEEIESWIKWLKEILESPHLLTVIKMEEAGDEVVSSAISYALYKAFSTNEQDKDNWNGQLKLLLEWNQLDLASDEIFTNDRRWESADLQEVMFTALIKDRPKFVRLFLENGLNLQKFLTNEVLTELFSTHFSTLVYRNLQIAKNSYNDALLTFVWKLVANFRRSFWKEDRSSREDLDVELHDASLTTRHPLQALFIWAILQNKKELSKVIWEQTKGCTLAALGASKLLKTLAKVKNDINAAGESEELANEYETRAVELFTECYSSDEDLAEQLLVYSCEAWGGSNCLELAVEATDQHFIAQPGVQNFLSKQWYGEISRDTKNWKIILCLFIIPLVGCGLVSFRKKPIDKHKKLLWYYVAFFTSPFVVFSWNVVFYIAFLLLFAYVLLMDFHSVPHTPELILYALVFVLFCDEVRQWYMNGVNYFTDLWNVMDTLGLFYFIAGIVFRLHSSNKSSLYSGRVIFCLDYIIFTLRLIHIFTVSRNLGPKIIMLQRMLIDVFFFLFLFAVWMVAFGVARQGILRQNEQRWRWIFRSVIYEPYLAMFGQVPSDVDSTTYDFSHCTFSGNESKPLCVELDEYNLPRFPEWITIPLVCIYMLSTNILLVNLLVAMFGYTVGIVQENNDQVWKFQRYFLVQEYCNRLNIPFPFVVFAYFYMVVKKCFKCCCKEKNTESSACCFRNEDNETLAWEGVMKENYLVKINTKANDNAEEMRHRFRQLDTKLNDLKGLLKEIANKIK
Sequence of Cytochrome P450 2C9 (P11712 whole entry): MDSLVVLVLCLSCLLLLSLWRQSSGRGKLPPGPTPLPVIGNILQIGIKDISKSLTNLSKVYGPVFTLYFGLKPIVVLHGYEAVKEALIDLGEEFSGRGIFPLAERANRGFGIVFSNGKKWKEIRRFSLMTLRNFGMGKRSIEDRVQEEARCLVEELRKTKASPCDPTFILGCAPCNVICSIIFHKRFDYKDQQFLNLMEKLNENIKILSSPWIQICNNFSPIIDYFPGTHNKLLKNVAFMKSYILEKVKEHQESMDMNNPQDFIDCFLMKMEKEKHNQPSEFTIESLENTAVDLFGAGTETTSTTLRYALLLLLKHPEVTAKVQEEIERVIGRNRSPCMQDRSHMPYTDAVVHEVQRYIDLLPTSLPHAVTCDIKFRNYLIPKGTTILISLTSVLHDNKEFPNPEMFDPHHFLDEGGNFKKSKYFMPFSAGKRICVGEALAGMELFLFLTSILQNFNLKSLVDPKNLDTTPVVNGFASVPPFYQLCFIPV
Sequence of Cytochrome P450 2C19 (P33261 whole entry): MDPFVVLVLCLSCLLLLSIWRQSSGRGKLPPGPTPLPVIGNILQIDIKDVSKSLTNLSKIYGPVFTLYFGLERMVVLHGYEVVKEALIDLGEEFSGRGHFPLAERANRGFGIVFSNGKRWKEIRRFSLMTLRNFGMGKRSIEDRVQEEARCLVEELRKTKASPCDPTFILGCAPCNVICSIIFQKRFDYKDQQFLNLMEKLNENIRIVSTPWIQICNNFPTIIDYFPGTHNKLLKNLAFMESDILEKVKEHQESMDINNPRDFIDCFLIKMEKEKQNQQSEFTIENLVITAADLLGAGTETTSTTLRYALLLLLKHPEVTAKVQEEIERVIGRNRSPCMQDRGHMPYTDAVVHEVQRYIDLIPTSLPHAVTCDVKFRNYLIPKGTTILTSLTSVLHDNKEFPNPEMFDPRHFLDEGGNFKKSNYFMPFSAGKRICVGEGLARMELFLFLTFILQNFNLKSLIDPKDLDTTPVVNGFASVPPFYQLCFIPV

CCNCc1cnn(-c2ccc(-n3ccc(Cl)c(Cl)c3=O)cc2)c1C(F)(F)F
Activity [1]: inactive
Activity [2]: inactive
Activity [3]: inactive
solubility kinetic at 24 h [4]: 0.2 µM (≈ 0.0862 µg/mL)
t1/2 [5]: 3.17 h
t1/2 [6]: 0.35 h
CLH [7]: 33 µL/min/mg
IC50 (Cytochrome P450 1A2): > 50 µM
IC50 (Cytochrome P450 2C9): > 50 µM
IC50 (Cytochrome P450 2C19): 41.5 µM
IC50 (Cytochrome P450 3A4): > 50 µM
Activity (Hippocampal neurone [8]): Active
Activity [9]: Non-toxic
Activity (Hippocampal neurone [10]): Active
Activity (Hippocampal neurone [11]): Active
Activity (Hippocampal neurone [12]): Active
Activity (Hippocampal neurone [13]): Active
